Measured values: patent US20240317777A1, “NOVEL MACROCYCLIC AMINOPYRAZOLE COMPOUNDS AS CDK2 INHIBITORS” (Accutar Biotechnology Inc., priority 2023, published 2024)
Where two headings read alike, the source gives them in different places.

Tests used:
CDK6-CYCLIN D3 = CDK6-CYCLIN D3 (Homo sapiens, UniProt Q00534); experiment: CDK protein kinase inhibition by ADP-Glo assay, CDK6-CYCLIN D3; type: biochemical; conditions: for IC50: read-out: CDK6-CYCLIND3, IC50; for CDK2 Fold selectivity, CDK6 / CDK2 Fold Sensitivity, CDK6: CDK2 versus CDK6; for CDK2 Fold Sensitivity, CDK6: Table 8; for CDK2 Fold selectivity against CDK6: Table 38, fold selectivity for CDK2 over CDK6, recombinant CDK kinases
Experimental: (§1) CDK Protein Kinase Inhibition by ADP-Glo Assay
(§2) This ADP-Glo assay measures ADP formed from a kinase reaction and indirectly quantifies the phosphorylation of peptide substrates by the CDK/cyclin protein complexes. The typical assays were carried out in Nanosyn by combining kinase/cyclin complexes, substrates, compounds, and cofactors (ATP and Mg2+) in a well of a 384-well microtiter plate (Corning 3824) and incubating at 22° C. (Table 1). At the end of the incubation, the reaction is quenched, and conversion is detected by luminescence using the Promega ADP-Glo™ Kinase Assay kit (catalog #V9102).
(§3) Final assay buffer mixture contains: • 100 mM HEPES, pH 7.5 • 0.1% BSA • 0.01% Triton X-100 • 1 mM DTT • 5 mM MgCl2 • 10 μM Sodium Orthovanadate • 100 μM Beta-Glycerophosphate • 1000 μM Ultra Pure ATP (provided in the Promega ADP-Glo™ Kinase Assay kit) • 1% DMSO (from compound)
(§4) Upon completion, 5 μL of the ADP Glo reagent was added to each well and the plate was further incubated at room temperature for 45 minutes. 10 uL of the Kinase Detection Reagent was subsequently added to each well. After 10 minutes of incubation, the plate was read and analyzed on the BioTek Synergy microplate reader using BioTek Gen5 software.

CDK4-CYCLIN D1 = CDK4-CYCLIN D1 (Homo sapiens, UniProt P11802); experiment: CDK protein kinase inhibition by ADP-Glo assay, CDK4-CYCLIN D1; type: biochemical; conditions: for IC50: read-out: CDK4-CYCLIND1, IC50; for CDK2 Fold selectivity, CDK4 / CDK2 Fold Sensitivity, CDK4: CDK2 versus CDK4; for CDK2 Fold Sensitivity, CDK4: Table 8; for CDK2 Fold selectivity against CDK4: Table 38, fold selectivity for CDK2 over CDK4, recombinant CDK kinases
Experimental: as §1, §2, §3, §4

[1] = test system: Phospho-Rb (Ser807/811) in OVCAR3 cells; experiment: Phospho-Rb expression inhibition in OVCAR3 cells quantified by In Cell Western; type: cell-based; conditions: Homo sapiens, OVCAR-3, 24 hours, read-out: OVCAR-3 pRb IC50
How it was run: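 In-cell western: after 24 h compound exposure at 37° C, fixed OVCAR3 cells co-stained for pRb Ser807/811 (800 nm channel) and total Rb (680 nm channel), imaged by LI-COR Odyssey.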

CDK2-CYCLIN E1 = CDK2-CYCLIN E1 (Homo sapiens, UniProt P24941); experiment: CDK protein kinase inhibition by ADP-Glo assay, CDK2-CYCLIN E1; type: biochemical; conditions: read-out: CDK2-CYCLINE, IC50
Experimental: as §1, §2, §3, §4

CDK9-CYCLIN T1 = CDK9-CYCLIN T1 (Homo sapiens, UniProt P50750); experiment: CDK protein kinase inhibition by ADP-Glo assay, CDK9-CYCLIN T1; type: biochemical; conditions: for IC50: read-out: CDK9-CYCLINT1, IC50; for CDK2 Fold selectivity, CDK9 / CDK2 Fold Sensitivity, CDK9: CDK2 versus CDK9; for CDK2 Fold Sensitivity, CDK9: Table 8; for CDK2 Fold selectivity against CDK9: Table 38, fold selectivity for CDK2 over CDK9, recombinant CDK kinases
Experimental: as §1, §2, §3, §4

[2] = test system: CCNE1-amplified OVCAR3 cells; experiment: Cell growth inhibition of CCNE1-amplified OVCAR3 cells (CellTiter-Glo); type: cell-based; conditions: Homo sapiens, OVCAR-3, 144 h, 6 days
How it was run: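 Growth read-out was CellTiter-Glo luminescence, taken after 10 min at room temperature at the end of a 6-day compound exposure at 37 °C. Compounds were diluted from DMSO stocks across various concentrations.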

CCNE1-normal SKOV3 cells = experiment: Cell growth inhibition of CCNE1-normal SKOV3 cells (CellTiter-Glo); type: cell-based; conditions: Homo sapiens, SK-OV-3, 144 h, 6 days
How it was run: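 Growth was measured by CellTiter-Glo luminescence after 6 days' compound exposure at 37 °C. Cells were plated one day before dosing at 1000 per well in medium with 10% FBS, and compounds were diluted from DMSO stocks.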

CDK1-CYCLIN B = CDK1-CYCLIN B (Homo sapiens, UniProt P06493); experiment: CDK protein kinase inhibition by ADP-Glo assay, CDK1-CYCLIN B; type: biochemical; conditions: for IC50: read-out: CDK1-CYCLINB, IC50; for CDK2 Fold selectivity, CDK1 / CDK2 fold selectivity over CDK1: CDK2 versus CDK1; for CDK2 fold selectivity over CDK1: Table 8; for CDK2 Fold selectivity against CDK1: Table 38, fold selectivity for CDK2 over CDK1, recombinant CDK kinases
Experimental: as §1, §2, §3, §4

[3] = Table 37, recombinant CDK kinase

Sequence of CDK4-CYCLIN D1 (P11802 whole entry): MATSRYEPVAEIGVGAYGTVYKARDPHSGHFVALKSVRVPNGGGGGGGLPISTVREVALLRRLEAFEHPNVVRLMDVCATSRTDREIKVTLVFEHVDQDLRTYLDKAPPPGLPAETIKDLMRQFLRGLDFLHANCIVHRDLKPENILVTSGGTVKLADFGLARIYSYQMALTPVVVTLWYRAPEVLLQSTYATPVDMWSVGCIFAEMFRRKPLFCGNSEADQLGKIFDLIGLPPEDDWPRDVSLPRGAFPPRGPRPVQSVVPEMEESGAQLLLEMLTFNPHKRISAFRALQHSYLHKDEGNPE
Sequence of CDK4-CYCLIN D1 (P24385 whole entry partner): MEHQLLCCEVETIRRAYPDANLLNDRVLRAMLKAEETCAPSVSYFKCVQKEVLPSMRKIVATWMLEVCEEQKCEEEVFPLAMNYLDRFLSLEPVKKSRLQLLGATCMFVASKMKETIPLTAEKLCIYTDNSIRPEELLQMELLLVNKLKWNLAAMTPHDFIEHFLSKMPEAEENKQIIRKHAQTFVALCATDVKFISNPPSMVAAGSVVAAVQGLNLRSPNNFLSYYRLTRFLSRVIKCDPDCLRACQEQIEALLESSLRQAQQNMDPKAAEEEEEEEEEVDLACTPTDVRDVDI
Sequence of CDK9-CYCLIN T1 (P50750 whole entry): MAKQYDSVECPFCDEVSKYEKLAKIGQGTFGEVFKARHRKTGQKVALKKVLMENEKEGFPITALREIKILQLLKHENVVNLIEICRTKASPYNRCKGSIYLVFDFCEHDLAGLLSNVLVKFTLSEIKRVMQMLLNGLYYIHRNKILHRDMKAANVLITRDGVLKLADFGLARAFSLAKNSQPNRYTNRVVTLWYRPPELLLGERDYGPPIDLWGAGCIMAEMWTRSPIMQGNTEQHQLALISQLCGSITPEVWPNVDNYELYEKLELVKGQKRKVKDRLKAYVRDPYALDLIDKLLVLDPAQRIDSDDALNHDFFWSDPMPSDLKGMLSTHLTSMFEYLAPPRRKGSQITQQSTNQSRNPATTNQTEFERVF
Sequence of CDK9-CYCLIN T1 (O60563 whole entry partner): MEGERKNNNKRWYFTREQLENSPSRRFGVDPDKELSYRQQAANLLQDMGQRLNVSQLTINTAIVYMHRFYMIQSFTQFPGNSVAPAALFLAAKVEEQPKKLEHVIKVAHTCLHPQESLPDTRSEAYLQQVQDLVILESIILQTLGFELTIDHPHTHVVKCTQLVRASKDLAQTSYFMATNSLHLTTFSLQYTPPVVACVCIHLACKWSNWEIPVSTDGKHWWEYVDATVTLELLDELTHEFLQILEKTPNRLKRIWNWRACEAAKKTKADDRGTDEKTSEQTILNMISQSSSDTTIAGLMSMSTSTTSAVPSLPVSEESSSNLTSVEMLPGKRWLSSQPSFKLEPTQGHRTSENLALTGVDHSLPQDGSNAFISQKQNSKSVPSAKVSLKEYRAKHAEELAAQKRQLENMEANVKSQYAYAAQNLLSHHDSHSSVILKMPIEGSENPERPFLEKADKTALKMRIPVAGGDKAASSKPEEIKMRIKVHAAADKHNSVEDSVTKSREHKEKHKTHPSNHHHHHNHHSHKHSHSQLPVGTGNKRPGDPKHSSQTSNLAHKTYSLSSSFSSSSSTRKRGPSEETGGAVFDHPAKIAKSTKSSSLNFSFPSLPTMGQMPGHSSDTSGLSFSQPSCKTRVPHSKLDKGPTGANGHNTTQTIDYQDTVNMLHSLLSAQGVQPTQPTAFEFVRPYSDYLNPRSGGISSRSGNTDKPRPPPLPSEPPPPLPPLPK
Sequence of CDK6-CYCLIN D3 (Q00534 whole entry): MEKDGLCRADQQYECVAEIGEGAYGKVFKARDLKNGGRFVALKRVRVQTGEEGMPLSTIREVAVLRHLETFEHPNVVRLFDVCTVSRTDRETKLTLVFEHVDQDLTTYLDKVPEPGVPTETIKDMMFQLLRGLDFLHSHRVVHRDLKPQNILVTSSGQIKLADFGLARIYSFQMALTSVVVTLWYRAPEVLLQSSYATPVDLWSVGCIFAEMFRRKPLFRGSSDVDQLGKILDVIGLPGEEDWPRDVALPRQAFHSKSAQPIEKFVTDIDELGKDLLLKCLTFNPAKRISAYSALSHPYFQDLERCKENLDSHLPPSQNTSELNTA
Sequence of CDK6-CYCLIN D3 (P30281 whole entry partner): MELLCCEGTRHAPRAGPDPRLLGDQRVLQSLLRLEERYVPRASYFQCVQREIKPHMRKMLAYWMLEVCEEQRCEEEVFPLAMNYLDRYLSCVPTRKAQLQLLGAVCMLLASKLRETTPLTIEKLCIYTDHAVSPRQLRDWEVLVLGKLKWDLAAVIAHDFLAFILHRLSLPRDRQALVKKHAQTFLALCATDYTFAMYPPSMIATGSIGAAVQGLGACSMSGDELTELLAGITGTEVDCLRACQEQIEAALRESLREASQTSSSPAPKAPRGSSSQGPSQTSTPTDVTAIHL
Sequence of CDK1-CYCLIN B (P06493 whole entry): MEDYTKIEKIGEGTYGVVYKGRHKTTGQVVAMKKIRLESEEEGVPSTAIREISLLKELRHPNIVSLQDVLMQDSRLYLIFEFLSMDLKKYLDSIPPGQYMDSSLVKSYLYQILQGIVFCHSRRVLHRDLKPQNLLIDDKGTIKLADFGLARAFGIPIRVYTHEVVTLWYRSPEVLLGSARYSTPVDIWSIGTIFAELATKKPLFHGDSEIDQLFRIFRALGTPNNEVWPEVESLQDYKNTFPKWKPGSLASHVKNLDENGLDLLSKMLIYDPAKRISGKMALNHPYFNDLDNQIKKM
Sequence of CDK1-CYCLIN B (P14635 whole entry partner): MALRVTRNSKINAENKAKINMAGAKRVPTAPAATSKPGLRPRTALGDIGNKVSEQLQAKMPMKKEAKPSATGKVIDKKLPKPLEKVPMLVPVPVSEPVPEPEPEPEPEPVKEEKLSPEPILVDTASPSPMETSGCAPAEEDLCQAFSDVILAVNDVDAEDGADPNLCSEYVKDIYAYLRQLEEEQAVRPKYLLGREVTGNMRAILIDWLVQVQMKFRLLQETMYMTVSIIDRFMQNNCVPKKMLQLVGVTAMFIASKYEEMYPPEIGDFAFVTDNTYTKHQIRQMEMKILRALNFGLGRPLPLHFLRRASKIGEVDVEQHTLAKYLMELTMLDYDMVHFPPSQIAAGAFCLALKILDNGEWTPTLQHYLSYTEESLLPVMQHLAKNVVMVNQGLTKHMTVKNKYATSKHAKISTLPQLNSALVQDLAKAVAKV

IC50 [1] [nM] | IC50 [2] [nM] | IC50 (CDK6-CYCLIN D3; ADP-Glo, 1000 μM ATP, Table 7) [nM] | CDK2 Fold Sensitivity, CDK6 (CDK6-CYCLIN D3) | IC50 (CDK4-CYCLIN D1; ADP-Glo, 1000 μM ATP, Table 7) [nM] | CDK2 Fold Sensitivity, CDK4 (CDK4-CYCLIN D1) | IC50 (CDK2-CYCLIN E1; ADP-Glo, 1000 μM ATP, Table 7) [nM] | IC50 (CDK9-CYCLIN T1; ADP-Glo, 1000 μM ATP, Table 7) [nM] | CDK2 Fold Sensitivity, CDK9 (CDK9-CYCLIN T1) | IC50 (CDK1-CYCLIN B; ADP-Glo, 1000 μM ATP, Table 7) [nM] | CDK2 fold selectivity over CDK1 (CDK1-CYCLIN B) | IC50 (CDK6-CYCLIN D3; [3]) [nM] | CDK2 Fold selectivity against CDK6 (CDK6-CYCLIN D3) | IC50 (CDK4-CYCLIN D1; [3]) [nM] | CDK2 Fold selectivity against CDK4 (CDK4-CYCLIN D1) | IC50 (CDK2-CYCLIN E1; [3]) [nM] | IC50 (CDK9-CYCLIN T1; [3]) [nM] | CDK2 Fold selectivity against CDK9 (CDK9-CYCLIN T1) | IC50 (CDK1-CYCLIN B; [3]) [nM] | SMILES | IC50 (CCNE1-normal SKOV3 cells) [nM] | other results
2 to 10 | 2 to 10 |  |  |  |  |  |  |  |  |  |  |  |  |  |  |  |  |  | O=C1N[C@H]2C[C@@H](CC(F)(F)c3cc(ccn3)Nc3cc(n[nH]3)[C@H]3CC[C@H](C3)O1)C2 (single isomer, unassigned) [Compound 170, (1^1S,1^3R,7^1S,7^3R,Z)-5,5-difluoro-2^1H-10-oxa-3,8-diaza-4(4,2)-pyridina-2(3,5)-pyrazola-1(1,3)-cyclopentana-7(1,3)-cyclobutanacyclodecaphan-9-one] | 50 to 250 | IC50 (CDK6-CYCLIN D3; ADP-Glo, 1000 μM ATP, Table 31): 10 to 50 nM; CDK2 Fold selectivity, CDK6 (CDK6-CYCLIN D3; Table 32): E (E, <20); IC50 (CDK4-CYCLIN D1; ADP-Glo, 1000 μM ATP, Table 31): 10 to 50 nM; CDK2 Fold selectivity, CDK4 (CDK4-CYCLIN D1; Table 32): E (E, <20); IC50 (CDK2-CYCLIN E1; ADP-Glo, 1000 μM ATP, Table 31): ≤ 10 nM; IC50 (CDK9-CYCLIN T1; ADP-Glo, 1000 μM ATP, Table 31): 10 to 50 nM; CDK2 Fold selectivity, CDK9 (CDK9-CYCLIN T1; Table 32): E (E, <20); IC50 (CDK1-CYCLIN B; ADP-Glo, 1000 μM ATP, Table 31): ≤ 10 nM; CDK2 Fold selectivity, CDK1 (CDK1-CYCLIN B; Table 32): E (E, <20)
10 to 50 | 50 to 250 | 50 to 100 | E (E, <20) | 50 to 100 | E (E, <20) | ≤ 10 | 100 to 500 | D (D, >20 and ≤50) | 100 to 500 | D (D, >20 and ≤50) |  |  |  |  |  |  |  |  | O=C1NCCCCCc2cc(ccn2)Nc2cc([nH]n2)[C@H]2CC[C@H](C2)O1 [Compound 4, (1^1S,1^3R,Z)-2^1H-12-oxa-3,10-diaza-4(4,2)-pyridina-2(3,5)-pyrazola-1(1,3)-cyclopentanacyclododecaphan-11-one] | 250 to 1250 | 
10 to 50 | 10 to 50 | > 500 | B (B, >100 and ≤500) | > 500 | B (B, >100 and ≤500) | ≤ 10 | > 500 | B (B, >100 and ≤500) | 100 to 500 | C (C, >50 and ≤100) |  |  |  |  |  |  |  |  | C[C@H]1CCCOc2cc(ccn2)Nc2cc([nH]n2)[C@H]2CC[C@H](C2)OC(=O)N1 [Compound 9, (1^1S,1^3R,9S,Z)-9-methyl-2^1H-5,12-dioxa-3,10-diaza-4(4,2)-pyridina-2(3,5)-pyrazola-1(1,3)-cyclopentanacyclododecaphan-11-one] | > 1250 | IC50 (CDK6-CYCLIN D3; ADP-Glo, 1000 μM ATP, Table 29): > 500 nM; CDK2 Fold selectivity, CDK6 (CDK6-CYCLIN D3; Table 30): C (C, >50 and ≤100); IC50 (CDK4-CYCLIN D1; ADP-Glo, 1000 μM ATP, Table 29): > 500 nM; CDK2 Fold selectivity, CDK4 (CDK4-CYCLIN D1; Table 30): C (C, >50 and ≤100); IC50 (CDK2-CYCLIN E1; ADP-Glo, 1000 μM ATP, Table 29): 10 to 50 nM; IC50 (CDK9-CYCLIN T1; ADP-Glo, 1000 μM ATP, Table 29): > 500 nM; CDK2 Fold selectivity, CDK9 (CDK9-CYCLIN T1; Table 30): C (C, >50 and ≤100); IC50 (CDK1-CYCLIN B; ADP-Glo, 1000 μM ATP, Table 29): 100 to 500 nM; CDK2 Fold selectivity, CDK1 (CDK1-CYCLIN B; Table 30): E (E, <20)
10 to 50 | 50 to 250 | 100 to 500 | C (C, >50 and ≤100) | 100 to 500 | C (C, >50 and ≤100) | ≤ 10 | > 500 | B (B, >100 and ≤500) | 100 to 500 | D (D, >20 and ≤50) |  |  |  |  |  |  |  |  | C[C@@H]1CCCOc2cc(ccn2)Nc2cc([nH]n2)[C@H]2CC[C@H](C2)OC(=O)N1 [Compound 10, (1^1S,1^3R,9R,Z)-9-methyl-2^1H-5,12-dioxa-3,10-diaza-4(4,2)-pyridina-2(3,5)-pyrazola-1(1,3)-cyclopentanacyclododecaphan-11-one] | > 1250 | 
2 to 10 | 2 to 10 | 50 to 100 | D (D, >20 and ≤50) | 50 to 100 | C (C, >50 and ≤100) | ≤ 10 | 50 to 100 | C (C, >50 and ≤100) | 10 to 50 | E (E, <20) |  |  |  |  |  |  |  |  | CC1(C)CCCOc2cc(ccn2)Nc2cc([nH]n2)[C@H]2CC[C@H](C2)OC(=O)N1 [Compound 13, (1^1S,1^3R,Z)-9,9-dimethyl-2^1H-5,12-dioxa-3,10-diaza-4(4,2)-pyridina-2(3,5)-pyrazola-1(1,3)-cyclopentanacyclododecaphan-11-one] | 250 to 1250 | 
10 to 50 | 10 to 50 |  |  |  |  |  |  |  |  |  | 10 to 50 | E (E, <20) | 10 to 50 | E (E, <20) | ≤ 10 | 10 to 50 | E (E, <20) | 10 to 50 | O=C1NC2CC(COc3cc(ccn3)Nc3cc(n[nH]3)C3C[C@H](F)[C@@H](C3)O1)C2 [Compound 230, (1^1S,1^3R,1^4S,7^1R,7^3S,Z)-1^4-fluoro-2^1H-5,10-dioxa-3,8-diaza-4(4,2)-pyridina-2(3,5)-pyrazola-1(1,3)-cyclopentana-7(1,3)-cyclobutanacyclodecaphan-9-one] |  | CDK2 Fold selectivity against CDK1 (CDK1-CYCLIN B): E (E, <20)
10 to 50 | 10 to 50 |  |  |  |  |  |  |  |  |  | 100 to 500 | B (B, >100 and ≤500) | 100 to 500 | B (B, >100 and ≤500) | ≤ 10 | > 500 | B (B, >100 and ≤500) | 50 to 100 | O=C1NC2CC(COc3cc(ccn3)Nc3[nH]nc(c3F)C3C[C@@H](F)[C@H](C3)O1)C2 [Compound 231, (1^1R,1^3S,1^4R,7^1S,7^3R,E)-1^4,2^4-difluoro-2^1H-5,10-dioxa-3,8-diaza-4(4,2)-pyridina-2(3,5)-pyrazola-1(1,3)-cyclopentana-7(1,3)-cyclobutanacyclodecaphan-9-one] |  | CDK2 Fold selectivity against CDK1 (CDK1-CYCLIN B): E (E, <20)
10 to 50 | 50 to 250 |  |  |  |  |  |  |  |  |  | 100 to 500 | E (E, <20) | 50 to 100 | E (E, <20) | 10 to 50 | 100 to 500 | E (E, <20) | 100 to 500 | O=C1NC2CC(COc3cc(ccn3)Nc3[nH]nc(c3F)C3C[C@H](F)[C@@H](C3)O1)C2 [Compound 232, (1^1S,1^3R,1^4S,7^1R,7^3S,E)-1^4,2^4-difluoro-2^1H-5,10-dioxa-3,8-diaza-4(4,2)-pyridina-2(3,5)-pyrazola-1(1,3)-cyclopentana-7(1,3)-cyclobutanacyclodecaphan-9-one] |  | CDK2 Fold selectivity against CDK1 (CDK1-CYCLIN B): E (E, <20)
